According to patent US20260373248A1, “DEGRADABLE PEPTOIDS” (Medici Therapeutics, Inc., priority 2023, published 2026):
Non-standard residues stand in square brackets, D forms with d. Residues, ends and D or L forms follow the SMILES beside them. *: point of attachment. Gly(N-(3-decanoyloxypropyl)) = CCCCCCCCCC(=O)OCCCNCC(=O)O; N(3-lauroyloxypropyl)Gly = CCCCCCCCCCCC(=O)OCCCNCC(=O)O; Gly(N-(CH2)3O-octanoyl) = CCCCCCCC(=O)OCCCNCC(=O)O; N(3-imidazol-1-ylpropyl)Gly = O=C(O)CNCCCn1ccnc1; Gly(N-3-morpholinopropyl) = O=C(O)CNCCCN1CCOCC1; N(2-ethylhexyl)Gly = CCCCC(CC)CNCC(=O)O; Gly(N-dodecyl) = CCCCCCCCCCCCNCC(=O)O; N(CH(CH2OH)2)Gly = O=C(O)CNC(CO)CO; N(octyl)Gly = CCCCCCCCNCC(=O)O; NHexGly = CCCCCCNCC(=O)O; For = O=C*

Columns and labels:
luciferase = test: Luciferase expression after local (intramuscular or subcutaneous) administration of mRNA; type: in vivo; conditions: mRNA 0.01 mpk, 6 hours; for IM Flux: intramuscular; for SC Flux: subcutaneous
Outline: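 Female Balb/c mice (6-8 weeks) received fLuc mRNA in aminolipidated peptoid Nutshells at 0.01 mpk subcutaneously or intramuscularly, or 0.1 mpk intratumorally. At 6 hours, anesthetized mice were given D-luciferin IP and imaged 10 minutes later; harvested organs were also imaged and total photon flux quantified in regions of interest.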

mRNA = mRNA encapsulation (modified Quant-iT RiboGreen assay); type: physicochemical; conditions: for mean percent encapsulation of RNA: RiboGreen, without vs with Triton X-100; for % Encapsulation: mRNA
Outline: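 Peptoid nanoparticles were incubated with Triton X-100 for 10 min to release entrapped mRNA, then mixed with RiboGreen reagent and read by fluorescence (ex 485 nm/em 530 nm). Percent encapsulation was derived from the ratio of fluorescence without versus with Triton X-100.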

[1] = Delivery vehicle size and polydispersity by dynamic light scattering; type: physicochemical
Outline: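 LNPs made by microfluidic mixing of ethanolic peptoid/DSPC/cholesterol/DMG-PEG2000 (20:1.79:7.16:1.84 by weight) with mRNA in 10 mM citrate pH 5.0 at 1:3 by volume, then dialyzed overnight at 4 °C against tris-sucrose pH 7.4. Size and PDI read by dynamic light scattering in PBS.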

hEPO = test: Quantification of hEPO in serum after IV injection of mRNA (Human EPO ELISA); type: in vivo; conditions: Balb/c mice, 2.5 μg mRNA IV, serum after 6 hours
Method: Balb/c mice were treated with 2.5 μg of mRNA coding for human erythropoiten via IV injection according to a similar method as in Example 4. hEPO protein in the serum was quantified after 6 hours using the Human EPO ELISA Kit from Invitrogen (catalog #BMS2035-2). Wash buffer (PBS with 1% tween 20) and assay buffer (PBS with 1% tween 20, 10% BSA) were prepared from a 20× concentrate with milli-Q water. Serum samples were diluted with PBS according to expected EPO concentration, with a 50× dilution for low expression samples and up to a 30,000× dilution for samples expected to have high expression. Microwell strips were washed in a plate washer with wash buffer and tapped on an absorbent pad to remove excess buffer. 100 μL of sample diluent were added to each well that will be used for the standard curve. 50 μL of sample diluent was added to each sample well.
The standard curve was prepared by reconstituting the human erythropoietin standard by adding the volume of water listed on the vial label. Standard was swirled gently and allowed to reconstitute for 10 minutes prior to use, then 100 μL is added to standard wells and mixed well. 100 μL from standard wells were then transferred to sample wells and mixed well. This was repeated 5 times to produce 2 columns of standard dilutions from 100 to 1.6 mIU/mL. 100 μL was discarded from the last microwells. The final 2 wells contained 100 μL of sample diluent and served as a blank. An external standard was also included to facilitate a mIU/mL conversion to ng/mL. The same serial dilution method was repeated starting with the external standard at 6.25 ng/mL. Once the standards were added, 50 μL of each sample was added in duplicate to the sample wells. Next, the biotin-conjugate was prepared by diluting 1:100 in assay buffer. 50 μL of biotin-conjugate was added to all wells and the plate was covered with a plate seal and shaken at room temperature for 1 hour. During the last few minutes of shaking, streptavidin-HRP was prepared by diluting 1:100 in assay buffer. The plate was washed on a plate washer and tapped on an absorbent pad to remove remaining wash buffer.
100 μL of the diluted streptavidin-HRP was added to each well and the plate was sealed and shaken for 15 minutes at room temperature. After 15 minutes, the plate seal was removed and the plate was washed on a plate washer and remaining wash buffer tapped out on an absorbent pad. 100 μL of TMB substrate was added to all wells and the plate was incubated for 10 minutes at room temperature out of direct light. Color development was checked every few minutes and the assay was stopped when the highest standard was dark blue. The reaction was stopped by pipetting 100 μL of stop solution into each well. Immediately after stop solution was added, the plate was gently tapped to ensure the solution was mixed. Absorbance was then read at 450 nm for each well. A standard curve was plotted for both the kit-provided standards (mIU/mL) and the external standard (ng/mL) and fit using Prism. Sample absorbances that fell within the standard curve were interpolated and adjusted for dilution (including a 2× assay dilution). Samples that were not within the standard curve were repeated at an adjusted dilution.

[2] = Peptoid quantity remaining in liver by HPLC-TOF mass spectrometry; type: in vivo; conditions: liver homogenate
Method: Peptoid quantity in liver was determined via high-performance liquid chromatography coupled with time-of-flight mass spectrometer (HPLC-TOF). The entire liver was weighed, and then two sections were isolated using a provided biopsy punch for liver homogenization. Liver homogenate sample was prepared by resuspending 20 mg liver tissue in 400 μL extraction solvent (IPA/MeOH=8/2) containing an internal standard (400 pg/μL) followed by bead homogenization (45 sec per cycle for 3-4 cycles). Homogenized samples were centrifuged at 12,000 rpm for 8 min at 6 °C. The resulting supernatant was collected and stored at −20 °C for further LC analysis. 5 μL of the resulting supernatant sample from solid or liquid tissue was injected into a BEH C8 column on an Agilent 1290 Infinity II liquid chromatograph coupled with an Agilent 6230 LC-TOF system. Concentrations of peptoids were determined by a linear calibration curve (linear range:0.2-50 μg/g for solid tissue). Standard calibration curve solutions were prepared by spiking untreated liver followed by homogenization and centrifugation.

firefly luciferase = test: In vivo firefly luciferase expression after intravenous injection of fLuc mRNA delivery vehicles (IVIS imaging); parameters: species or system female Balb/c mice; conditions: for Total Flux (luciferase expression): fLuc mRNA, intravenous, Balb/c mice; for Total Flux: mice, 2.5 ug fLuc mRNA intravenously, 6 hours post-injection
Outline: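 Female Balb/c mice (6-8 weeks) given 2.5 ug fLuc mRNA in Nutshells IV. At 6 hours, IP D-luciferin (30 mg/mL, 10 μL/g) under isoflurane; IVIS imaging 10 minutes later, then harvested organs imaged ex vivo. Read-out: total photon flux in regions of interest.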

[3] = DLS in PBS, peptoid:DSPC:Cholesterol:DMG-PEG2000 weight ratio 20:1.79:7.16:1.84, mRNA

SMILES	IM Flux (luciferase) [p/s]	SC Flux (luciferase) [p/s]	mean percent encapsulation of RNA (mRNA) [%]	% Encapsulation (mRNA; formulation recipe D22) [%]	% Encapsulation (mRNA; formulation recipe O5) [%]	% Encapsulation (mRNA; formulation recipe O8) [%]	PDI [1, 3]	Particle Size [1, 3] [nm]	Particle Size ([1]; formulation recipe D22) [nm]	Particle Size ([1]; formulation recipe O5) [nm]	Particle Size ([1]; formulation recipe O8) [nm]	hEPO (hEPO) [ng/mL]	% of injected dose remaining in liver [2]	Total Flux (luciferase expression) (firefly luciferase; formulation recipe D22) [p/s]	Total Flux (luciferase expression) (firefly luciferase; formulation recipe O5) [p/s]	Total Flux (luciferase expression) (firefly luciferase; formulation recipe O8) [p/s]	Total Flux (firefly luciferase) [p/s]
CCCCCCCCCCCC(=O)OCCCN(CC(=O)N(CC(N)=O)CC(CC)CCCC)C(=O)CN(CCCCCCCC)C(=O)CN(CC(CC)CCCC)C(=O)CN(CCCOC(=O)CCCCCCCCCCC)C(=O)CN(CCCCCCCC)C(=O)CN(C=O)CCCN1CCOCC1 (centres unmarked) [Compound 74] (For-[Gly(N-3-morpholinopropyl)][N(octyl)Gly][N(3-lauroyloxypropyl)Gly][N(2-ethylhexyl)Gly][N(octyl)Gly][N(3-lauroyloxypropyl)Gly][N(2-ethylhexyl)Gly]-NH2)	4.87E+07	2.11E+08	67.6	67.6	90.4	91.5	0.151	87.1	87.1	70.1	71.7	354	bdl	1.96E+09	1.92E+09	3.39E+09	1.96E+09
CCCCCCCCCC(=O)OCCCN(CC(=O)N(CC(=O)N(CCCCCC)CC(=O)N(CCCOC(=O)CCCCCCCCC)CC(=O)N(CC(=O)N(CCCCCC)CC(N)=O)CC(CC)CCCC)CC(CC)CCCC)C(=O)CNC(CO)CO (centres unmarked) [Compound 55] (H-[N(CH(CH2OH)2)Gly][Gly(N-(3-decanoyloxypropyl))][N(2-ethylhexyl)Gly][NHexGly][Gly(N-(3-decanoyloxypropyl))][N(2-ethylhexyl)Gly][NHexGly]-NH2)	5.29E+07	9.41E+07	26.3	–	–	–	0.139	90.2	–	–	–	63.1	4.59%	–	–	–	6.22E+08
CCCCCCCC(=O)OCCCN(CC(=O)N(CC(=O)N(CC(=O)N(CCCOC(=O)CCCCCCC)CC(=O)N(CC(N)=O)CC(CC)CCCC)CC(CC)CCCC)CC(CC)CCCC)C(=O)CN(CC(CC)CCCC)C(=O)CNC(CO)CO (centres unmarked) [Compound 4] (H-[N(CH(CH2OH)2)Gly][N(2-ethylhexyl)Gly][Gly(N-(CH2)3O-octanoyl)][N(2-ethylhexyl)Gly][N(2-ethylhexyl)Gly][Gly(N-(CH2)3O-octanoyl)][N(2-ethylhexyl)Gly]-NH2)	5.26E+08	5.11E+08	94.6	–	–	–	0.113	74.4	–	–	–	291	5.98%	–	–	–	4.33E+09
CCCCCCCCCCCC(=O)OCCN(CC(=O)N(CCOC(=O)CCCCCCCCCCC)CC(=O)N(CC(=O)N(CCOC(=O)CCCCCCCCCCC)CC(=O)N(CCOC(=O)CCCCCCCCCCC)CC(=O)N(CC(N)=O)CC(CC)CCCC)CC(CC)CCCC)C(=O)CN(C=O)CCCN1CCOCC1 (centres unmarked) [Compound 65]	8.99E+08	2.00E+08	39.1	–	–	–	0.248	91.4	–	–	–	77.7	14.67%	–	–	–	8.68E+08
CCCCCCCCCCCC(=O)OCCCN(C=O)CC(=O)N(CCCOC(=O)CCCCCCCCCCC)CC(=O)N(CC(=O)N(CCCN1CCOCC1)CC(=O)N(CCCOC(=O)CCCCCCCCCCC)CC(=O)N(CCCOC(=O)CCCCCCCCCCC)CC(=O)N(CC(N)=O)CC(CC)CCCC)CC(CC)CCCC (centres unmarked) [Compound 81] (For-[N(3-lauroyloxypropyl)Gly][N(3-lauroyloxypropyl)Gly][N(2-ethylhexyl)Gly][Gly(N-3-morpholinopropyl)][N(3-lauroyloxypropyl)Gly][N(3-lauroyloxypropyl)Gly][N(2-ethylhexyl)Gly]-NH2)	2.11E+08	6.97E+07	–	–	–	–	–	–	–	–	–	52	6.17%	–	–	–	1.89E+08
CCCCCCCCCCCCN(C=O)CC(=O)N(CCCOC(=O)CCCCCCCCCCC)CC(=O)N(CC(=O)N(CCCn1ccnc1)CC(=O)N(CC(=O)N(CCCOC(=O)CCCCCCCCCCC)CC(=O)N(CCCCCCCCCCCC)CC(N)=O)CC(CC)CCCC)CC(CC)CCCC (centres unmarked) [Compound 85] (For-[Gly(N-dodecyl)][N(3-lauroyloxypropyl)Gly][N(2-ethylhexyl)Gly][N(3-imidazol-1-ylpropyl)Gly][N(2-ethylhexyl)Gly][N(3-lauroyloxypropyl)Gly][Gly(N-dodecyl)]-NH2)	5.99E+07	4.21E+07	0.0	–	–	–	0.102	81.1	–	–	–	26.3	40.01%	–	–	–	–
